From article PMC8847585, “Induction of senescence-associated secretory phenotype underlies the therapeutic efficacy of PRC2 inhibition in cancer” (Cell Death & Disease, 2022)

Key:
G401 xenograft tumors = test: Subcutaneous G401 xenograft tumor study; type: in vivo, mice
Protocol: (§1) The animal study design and performance were evaluated and approved by Institutional Animal Care and Use Committee of ShanghaiTech University under the document number of 20201225001 and following the internationally recognized guidelines on animal welfare. To establish G401 xenograft models, WT G401 or p16 knock out cells were washed and resuspended in cold PBS and mixed with Matrigel at 1:1 (v/v) to reach the final ratio of 5 × 10^6 cells per 200 μL. Then the tumor cell mix were injected subcutaneously into the right flank of female Balb/c nude mice (5–6 weeks of age).
(§2) When tumor volume reached around 60-350 mm^3, the mice were numbered and randomized into vehicle or 100 mg/kg MAK683 treatment groups. The random numbers were generated using Excel (Software). The mice with tumor size out of the range were not included in the study. Empirically, at least 6 mice were included for each group. For compound dosing, MAK683 was resolved and suspended in water with 0.5% HPMC and 0.5% Tween at the concentration of 10 mg/mL. Dosing without blinding took place very day in the morning around 8 am. Mice weight and tumor volumes are measured and recorded every 3 days. Tumor volumes were calculated based on perpendicular length and width caliper measurements using the following formula: tumor volume (mm^3) = 0.5 × (length × width^2).
(§3) Tumor tissues were fixed in freshly-prepared 4% PFA for 24 hours, dehydrated through 30%, 50%, 70%, 85%, and 90% ethanol five-minute each, and 100% ethanol triple, permeabilized through xylene five-minute twice and then embedded in paraffin, and finally cut into 5 μm-thick sections. The sections were de-paraffinized with xylene for 10 min triple, rehydrated with ethanol from high to low concentration five minutes each and dH2O twice. […] After cool down to room temperature, endogenous peroxidase was inactivated with 3% H2O2 in methanol. Then the sections were washed with dH2O twice, blocked with 5% normal goat serum in PBS with 0.25% Triton X-100 for 1 hour at room temperature followed by primary antibodies incubation overnight at 4 °C. After HRP-conjugated secondary antibodies were incubated for 1 hours at room temperature, the sections were visualized with DAB. For quantification of Ki-67, H3K27me3 or ITGA2 positivity, the ratios of DAB positive cells to total cells in five representative fields were counted. For quantification of F4/80 positivity, the ratios of DAB positive area to total cells were counted. Five 40 × objective magnification fields per selection were counted and averaged.
Cell senescence study was used by Beyotime in Situ β-galactosidase Staining Kit. Adherent cells were fix by fix-buffer for 15 min at room temperature and wash with PBS twice, then stain by stain-buffer mixture at 37 °C overnight. Frozen tissue sections were counterstained with eosin.

[1] = Body weight of tumor-bearing animals; type: in vivo; settings: 100 mg/kg daily, G401 xenograft-bearing mice, 25 days
Protocol: as §2

p16 KO xenograft tumors = test: Subcutaneous p16 KO G401 xenograft tumor study; type: in vivo, mice
Protocol: as §1, §2, §3
Cell senescence study was used by Beyotime in Situ β-galactosidase Staining Kit. Adherent cells were fix by fix-buffer for 15 min at room temperature and wash with PBS twice, then stain by stain-buffer mixture at 37 °C overnight. […]

p16 KO G401 cells = test: Proliferation of p16 KO G401 cells, viable cell count; type: cell-based; settings: p16 KO G401 clones vs G401; MAK683 at 1 μM (proliferation), 3 μM 3 days (cell cycle)
Protocol: (§4) Viable cell numbers were counted every 3 days up to 15 days by Vi-CELL (Beckman Coulter). For cell cycle analysis, MAK683 treated cells were fixed with pre-chilled 70% ethanol and kept at -20 degree overnight. On the second day, the cells were washed with cold PBS twice and collected by spin at 1000 rpm, digested with RNase A, then stained with 10 μg /mL Propidium Iodide in PBS solution for 30 min at room temperature. The stained cell samples were filtered through 70 μm cell strainer, and the staining signals were detected using flow cytometer (BD Fortessa). The acquired data were further analyzed by Modfit LT.
Two pairs of guide RNAs (Supplementary Table 1) targeting the exon2 of human CDKN2A (NM_000077) were designed using ChopChop website. gRNA oligos were synthesized, annealed and subcloned into the pSpCas9(BB)-2A-GFP (PX458). G401 and A2780 cell lines were transfected with the resultant plasmids, cultured for 48 h, and then applied to the single cell sorting for selecting GFP-positive cell by flow cytometer. Single cell clones were first cultured each well of 96-well plate, and then gradually expanded in larger cultures for further experiments. […]

[2] = test system: WSU-DLCL2 (EZH2-Y641F) cell; test: Anti-proliferation of lymphoma cell WSU-DLCL2, viable cell count; type: cell-based; settings: Homo sapiens, WSUDLCL2, 216 h, read-out: IC50 of proliferation inhibition
Protocol: as §4

H3K27me3 in HeLa cell = test: Inhibition of cellular H3K27me3 (western blot quantification); type: cell-based; settings: Homo sapiens, 72 hr of treatment, n = 3
Protocol: Cells were washed once with cold PBS and lysed by RIPA lysis buffer and incubated with 4 × SDS loading buffer at 95 °C for 10 min. Whole cell proteins were used for electrophoresis and then transferred to a nitrocellulose membrane. The membrane was blocked with Tris buffered saline containing 0.075% Tween-20 and 5% non-fat milk. Then the membranes were incubated with primary antibodies overnight at 4 °C. The next day, membranes were incubated with secondary antibodies for 1 h at room temperature.

Hs700T cells = test: Cancer cell proliferation, viable cell count; type: cell-based; settings: Hs700T (SMARCA4-deficiency), up to 15 days
Protocol: as §4

HeLa cells = test: Cancer cell proliferation, viable cell count; type: cell-based; settings: up to 15 days
Protocol: as §4

G402 cells = test: Cancer cell proliferation, viable cell count; type: cell-based; settings: G402 (SMARCB1 deficiency), up to 15 days
Protocol: as §4

A204 cells = test: Cancer cell proliferation, viable cell count; type: cell-based; settings: A204 (SMARCB1 deficiency), up to 15 days
Protocol: as §4

G401 cells = test: Cancer cell proliferation, viable cell count; type: cell-based; settings: G401 (SMARCB1 deficiency), up to 15 days
Protocol: as §4

MCAS cells = test: Cancer cell proliferation, viable cell count; type: cell-based; settings: up to 15 days
Protocol: as §4

A2780 cells = test: Cancer cell proliferation, viable cell count; type: cell-based; settings: A2780 (ARID1A-deficiency), up to 15 days
Protocol: as §4

RD cells = test: Cancer cell proliferation, viable cell count; type: cell-based; settings: up to 15 days
Protocol: as §4

[3] = 100 mg/kg po qd, 25 days treatment
[4] = WT G401 tumor, 100 mg/kg, continuous treatment 46 days, treatment endpoint
[5] = p16 KO xenograft, 100 mg/kg, continuous treatment 46 days, treatment endpoint

Cc1ncccc1-c1cnc(NCc2c(F)ccc3c2CCO3)n2cnnc12 [MAK683]
TGI (G401 xenograft tumors; [3]): 67.20%
Tumor volume T/C% (G401 xenograft tumors; [3]): 30.55%
Ki-67 in treated tumors (IHC) (G401 xenograft tumors; 100 mg/kg po qd, day 25): significantly reduced
SA-β-gal activity in treated tumors (G401 xenograft tumors; 100 mg/kg po qd, day 25): increased
H3K27me3 in treated tumors (IHC) (G401 xenograft tumors; 100 mg/kg po qd, day 25, 4 h post treatment): significantly decreased
T/C% (G401 xenograft tumors; [4]): 7.21%
TGI (G401 xenograft tumors; [4]): 91.25%
Ki67 positivity in tumors (G401 xenograft tumors; WT tumors, 46 days): reduced
SA-β-gal signal in tumors (G401 xenograft tumors; WT tumors, 46 days): increased
Animals' body weight [1]: unaffected
Ki67 positivity in tumors (p16 KO xenograft tumors; p16 KO tumors, 46 days): reduced
T/C% (p16 KO xenograft tumors; [5]): 35.81%
TGI (p16 KO xenograft tumors; [5]): 54.18%
SA-β-gal signal in tumors (p16 KO xenograft tumors; p16 KO xenografts, 46 days): unchanged
Response of p16 KO cells to induced cell cycle arrest and proliferation blockage (p16 KO G401 cells): partially resistant
IC50 [2]: 1.15 nM
IC50 (H3K27me3 in HeLa cell): 1.01 nM
Sensitivity of proliferation to treatment (Hs700T cells): moderately sensitive
Sensitivity of proliferation to treatment (HeLa cells): not sensitive
Sensitivity of proliferation to treatment (G402 cells): sensitive
Sensitivity of proliferation to treatment (A204 cells): sensitive
Sensitivity of proliferation to treatment (G401 cells): sensitive
Sensitivity of proliferation to treatment (MCAS cells): not sensitive
Sensitivity of proliferation to treatment (A2780 cells): moderately sensitive
Sensitivity of proliferation to treatment (RD cells): not sensitive

CS(=O)(=O)c1ccc(-c2cnc(NCc3ccco3)n3cnnc23)cc1 [EED226]
IC50 [2]: 35.9 nM
IC50 (H3K27me3 in HeLa cell): 210 nM

CCN(c1cc(-c2ccc(CN3CCOCC3)cc2)cc(C(=O)NCc2c(C)cc(C)[nH]c2=O)c1C)C1CCOCC1 [EPZ6438]
Sensitivity of proliferation to treatment (HeLa cells): not sensitive
Sensitivity of proliferation to treatment (MCAS cells): not sensitive
Sensitivity of proliferation to treatment (A2780 cells): similarly inhibited the proliferation
Sensitivity of proliferation to treatment (RD cells): not sensitive
